Data as given in ChEMBL document CHEMBL3046437, “Synthesis, characterization and biological evaluation of some pyridine and quinoline fused chromenone derivatives” (2012).
Converted amounts (≈) assume the structure as drawn. The source made the active and inactive calls. No cut-off for these calls is given here.

What was measured:
Format in all cases: functional
Streptococcus pyogenes [1] = assay: Antibacterial activity against Streptococcus pyogenes ATCC 19615 after 24 to 48 hr by two-fold serial dilution method
Aspergillus niger [2] = assay: Antifungal activity against Aspergillus niger MTCC 282 at 100 ug/ml after 48 hr by agar diffusion method; conditions: for zone of inhibition at 100 µg/mL: MTCC 282, 48 h, read-out: DIZ
Pseudomonas [3] = assay: Antibacterial activity against Pseudomonas phaseolicola GSPB 2828 after 24 to 48 hr by two-fold serial dilution method
Staphylococcus aureus [4] = assay: Antibacterial activity against Staphylococcus aureus ATCC 25923 at 100 ug/ml after 24 hr by agar diffusion method; conditions: ATCC 25923, 24 h, read-out: DIZ
Staphylococcus aureus [5] = assay: Antibacterial activity against Staphylococcus aureus ATCC 25923 after 24 to 48 hr by two-fold serial dilution method
Streptococcus pyogenes [6] = assay: Antibacterial activity against Streptococcus pyogenes ATCC 19615 at 100 ug/ml after 24 hr by agar diffusion method; conditions: ATCC 19615, 24 h, read-out: DIZ
Fusarium oxysporum [7] = assay: Antifungal activity against Fusarium oxysporum ATCC 16417 at 100 ug/ml after 48 hr by agar diffusion method; conditions: for zone of inhibition at 100 µg/mL: ATCC 16417, 48 h, read-out: DIZ
Pseudomonas fluorescens [8] = assay: Antibacterial activity against Pseudomonas fluorescens S 97 at 100 ug/ml after 24 hr by agar diffusion method; conditions: for zone of inhibition at 100 µg/mL: S 97, 24 h, read-out: DIZ
Pseudomonas [9] = assay: Antibacterial activity against Pseudomonas phaseolicola GSPB 2828 at 100 ug/ml after 24 hr by agar diffusion method; conditions: GSPB 2828, 24 h, read-out: DIZ
Pseudomonas fluorescens [10] = assay: Antibacterial activity against Pseudomonas fluorescens S 97 after 24 to 48 hr by two-fold serial dilution method
Aspergillus niger [11] = assay: Antifungal activity against Aspergillus niger MTCC 282 after 24 to 48 hr by two-fold serial dilution method
Fusarium oxysporum [12] = assay: Antifungal activity against Fusarium oxysporum ATCC 16417 after 24 to 48 hr by two-fold serial dilution method

| Compound | MIC (Streptococcus pyogenes [1]) | MIC (Pseudomonas [3]) | MIC (Staphylococcus aureus [5]) | MIC (Pseudomonas fluorescens [10]) | MIC (Aspergillus niger [11]) | MIC (Fusarium oxysporum [12]) | zone of inhibition at 100 µg/mL (Aspergillus niger [2]) | zone of inhibition at 100 µg/mL (Staphylococcus aureus [4]) | zone of inhibition at 100 µg/mL (Streptococcus pyogenes [6]) | diameter of the inhibition zone (DIZ) (Fusarium oxysporum [7]) | zone of inhibition at 100 µg/mL (Pseudomonas fluorescens [8]) | zone of inhibition at 100 µg/mL (Pseudomonas [9]) | zone of inhibition at 100 µg/mL (Fusarium oxysporum [7]) | diameter of the inhibition zone (DIZ) (Pseudomonas fluorescens [8]) | diameter of the inhibition zone (DIZ) (Aspergillus niger [2]) |
| --- | --- | --- | --- | --- | --- | --- | --- | --- | --- | --- | --- | --- | --- | --- | --- |
| O=c1oc2ccc(Cl)cc2c2nc3c(cc12)CCc1ccccc1-3 | 12.5 µg/mL (≈ 37.5 µM) | 50 µg/mL (≈ 150 µM) | 12.5 µg/mL (≈ 37.5 µM) | 50 µg/mL (≈ 150 µM) | 100 µg/mL (≈ 300 µM) | 12.5 µg/mL (≈ 37.5 µM) | 8 mm | 26 mm | 23 mm | – | 16 mm | 15 mm | 23 mm | – | – |
| C[C@@H]1C[C@@H]([C@H](O)CC2CC(=O)NC(=O)C2)C(=O)[C@@H](C)C1 [CYCLOHEXIMIDE] | – | – | – | – | 6.25 µg/mL (≈ 22.2 µM) | 3.12 µg/mL (≈ 11.1 µM) | 42 mm | – | – | – | – | – | 43 mm | – | – |
| Cc1ccc2oc(=O)c3cc4c(nc3c2c1)CCCC4 | 12.5 µg/mL (≈ 47.1 µM) | 50 µg/mL (≈ 188 µM) | 50 µg/mL (≈ 188 µM) | 50 µg/mL (≈ 188 µM) | – | 50 µg/mL (≈ 188 µM) | – | 21 mm | 25 mm | – | 16 mm | 14 mm | 17 mm | – | inactive |
| Cc1cccc2c1oc(=O)c1cc3c(nc12)CCCC3 | 25 µg/mL (≈ 94.2 µM) | 25 µg/mL (≈ 94.2 µM) | 12.5 µg/mL (≈ 47.1 µM) | 25 µg/mL (≈ 94.2 µM) | 50 µg/mL (≈ 188 µM) | 100 µg/mL (≈ 377 µM) | 25 mm | 27 mm | 18 mm | – | 20 mm | 19 mm | 10 mm | – | – |
| O=c1oc2ccccc2c2nc3c(cc12)CCc1ccccc1-3 | 12.5 µg/mL (≈ 41.8 µM) | 50 µg/mL (≈ 167 µM) | 25 µg/mL (≈ 83.5 µM) | 25 µg/mL (≈ 83.5 µM) | 12.5 µg/mL (≈ 41.8 µM) | 100 µg/mL (≈ 334 µM) | 25 mm | 20 mm | 19 mm | – | 19 mm | 16 mm | 10 mm | – | – |
| O=C(N[C@H](CO)[C@H](O)c1ccc([N+](=O)[O-])cc1)C(Cl)Cl [CHLORAMPHENICOL] | 3.12 µg/mL (≈ 9.67 µM) | 6.25 µg/mL (≈ 19.3 µM) | 3.12 µg/mL (≈ 9.67 µM) | 6.25 µg/mL (≈ 19.3 µM) | – | – | – | 42 mm | 44 mm | – | 38 mm | 37 mm | – | – | – |

Further lines, with some results ahead:

| MIC (Streptococcus pyogenes [1]) | MIC (Pseudomonas [3]) | MIC (Staphylococcus aureus [5]) | MIC (Pseudomonas fluorescens [10]) | MIC (Aspergillus niger [11]) | MIC (Fusarium oxysporum [12]) | Compound | zone of inhibition at 100 µg/mL (Aspergillus niger [2]) | zone of inhibition at 100 µg/mL (Staphylococcus aureus [4]) | zone of inhibition at 100 µg/mL (Streptococcus pyogenes [6]) | diameter of the inhibition zone (DIZ) (Fusarium oxysporum [7]) | zone of inhibition at 100 µg/mL (Pseudomonas fluorescens [8]) | zone of inhibition at 100 µg/mL (Pseudomonas [9]) | zone of inhibition at 100 µg/mL (Fusarium oxysporum [7]) | diameter of the inhibition zone (DIZ) (Pseudomonas fluorescens [8]) | diameter of the inhibition zone (DIZ) (Aspergillus niger [2]) |
| --- | --- | --- | --- | --- | --- | --- | --- | --- | --- | --- | --- | --- | --- | --- | --- |
| 12.5 µg/mL (≈ 49.7 µM) | 25 µg/mL (≈ 99.5 µM) | 12.5 µg/mL (≈ 49.7 µM) | 50 µg/mL (≈ 199 µM) | 12.5 µg/mL (≈ 49.7 µM) | – | Cc1cccc2c1oc(=O)c1cc3c(nc12)CCC3 | 28 mm | 25 mm | 22 mm | inactive | 14 mm | 19 mm | – | – | – |
| 12.5 µg/mL (≈ 39.9 µM) | 50 µg/mL (≈ 160 µM) | 12.5 µg/mL (≈ 39.9 µM) | 50 µg/mL (≈ 160 µM) | 50 µg/mL (≈ 160 µM) | 100 µg/mL (≈ 319 µM) | Cc1cccc2c1oc(=O)c1cc3c(nc12)-c1ccccc1CC3 | 15 mm | 25 mm | 20 mm | – | 15 mm | 14 mm | 11 mm | – | – |
| 12.5 µg/mL (≈ 46 µM) | 100 µg/mL (≈ 368 µM) | 12.5 µg/mL (≈ 46 µM) | 12.5 µg/mL (≈ 46 µM) | 25 µg/mL (≈ 92 µM) | > 100 µg/mL | O=c1oc2ccc(Cl)cc2c2nc3c(cc12)CCC3 | 32 mm | 26 mm | 24 mm | – | 20 mm | 14 mm | 8 mm | – | – |
| 25 µg/mL (≈ 105 µM) | 50 µg/mL (≈ 211 µM) | 50 µg/mL (≈ 211 µM) | 50 µg/mL (≈ 211 µM) | > 100 µg/mL | 50 µg/mL (≈ 211 µM) | O=c1oc2ccccc2c2nc3c(cc12)CCC3 | 10 mm | 19 mm | 20 mm | – | 19 mm | 14 mm | 18 mm | – | – |
| 50 µg/mL (≈ 199 µM) | 50 µg/mL (≈ 199 µM) | 50 µg/mL (≈ 199 µM) | 25 µg/mL (≈ 99.5 µM) | 50 µg/mL (≈ 199 µM) | 12.5 µg/mL (≈ 49.7 µM) | Cc1ccc2oc(=O)c3cc4c(nc3c2c1)CCC4 | 24 mm | 18 mm | 19 mm | – | 17 mm | 15 mm | 30 mm | – | – |
| 12.5 µg/mL (≈ 43.7 µM) | 50 µg/mL (≈ 175 µM) | 12.5 µg/mL (≈ 43.7 µM) | – | 50 µg/mL (≈ 175 µM) | 50 µg/mL (≈ 175 µM) | O=c1oc2ccc(Cl)cc2c2nc3c(cc12)CCCC3 | 20 mm | 24 mm | 23 mm | – | – | 18 mm | 16 mm | inactive | – |
| 50 µg/mL (≈ 199 µM) | 25 µg/mL (≈ 99.5 µM) | 25 µg/mL (≈ 99.5 µM) | 25 µg/mL (≈ 99.5 µM) | 50 µg/mL (≈ 199 µM) | 12.5 µg/mL (≈ 49.7 µM) | O=c1oc2ccccc2c2nc3c(cc12)CCCC3 | 22 mm | 22 mm | 22 mm | – | 17 mm | 20 mm | 26 mm | – | – |
| 25 µg/mL (≈ 79.8 µM) | 25 µg/mL (≈ 79.8 µM) | 50 µg/mL (≈ 160 µM) | 25 µg/mL (≈ 79.8 µM) | 50 µg/mL (≈ 160 µM) | 50 µg/mL (≈ 160 µM) | Cc1ccc2oc(=O)c3cc4c(nc3c2c1)-c1ccccc1CC4 | 18 mm | 23 mm | 17 mm | – | 18 mm | 18 mm | 17 mm | – | – |
| 6.25 µg/mL (≈ 15.8 µM) | 6.25 µg/mL (≈ 15.8 µM) | 6.25 µg/mL (≈ 15.8 µM) | 6.25 µg/mL (≈ 15.8 µM) | – | – | CC(=O)OCC1=C(C(=O)O)N2C(=O)[C@@H](NC(=O)Cc3cccs3)[C@H]2SC1 [CEPHALOTHIN] | – | 36 mm | 37 mm | – | 37 mm | 38 mm | – | – | – |
